What was measured:
GSPT1 = assay: Western blot, degradation of substrate protein in hPBMCs; type: cell-based, Human
[1] = target: T1, human Cereblon WT GST-tagged protein (Homo sapiens, UniProt Q96SW2); assay: CRBN-binding affinity, HTRF (CEREBLON BINDING kit); details: for inhibition at 0.5 µM: read-out: Inhibition Rate at 0.5 µM (%); for inhibition at 2 µM: read-out: Inhibition Rate at 2 µM (%)
T1 construct: purchased CISBIO 64BDCRBNPEH

WEE1 = target: T2, WEE1 (Homo sapiens, UniProt P30291+Q96SW2); assay: Western blot, degradation of substrate protein in hPBMCs; type: cell-based
T2 construct: effects of the compounds of the present disclosure on the expression of target proteins in cells; endogenous in cells; host or cells: human PBMCs (Milecell Biotechnologies)
T2 sequence (P30291 whole entry): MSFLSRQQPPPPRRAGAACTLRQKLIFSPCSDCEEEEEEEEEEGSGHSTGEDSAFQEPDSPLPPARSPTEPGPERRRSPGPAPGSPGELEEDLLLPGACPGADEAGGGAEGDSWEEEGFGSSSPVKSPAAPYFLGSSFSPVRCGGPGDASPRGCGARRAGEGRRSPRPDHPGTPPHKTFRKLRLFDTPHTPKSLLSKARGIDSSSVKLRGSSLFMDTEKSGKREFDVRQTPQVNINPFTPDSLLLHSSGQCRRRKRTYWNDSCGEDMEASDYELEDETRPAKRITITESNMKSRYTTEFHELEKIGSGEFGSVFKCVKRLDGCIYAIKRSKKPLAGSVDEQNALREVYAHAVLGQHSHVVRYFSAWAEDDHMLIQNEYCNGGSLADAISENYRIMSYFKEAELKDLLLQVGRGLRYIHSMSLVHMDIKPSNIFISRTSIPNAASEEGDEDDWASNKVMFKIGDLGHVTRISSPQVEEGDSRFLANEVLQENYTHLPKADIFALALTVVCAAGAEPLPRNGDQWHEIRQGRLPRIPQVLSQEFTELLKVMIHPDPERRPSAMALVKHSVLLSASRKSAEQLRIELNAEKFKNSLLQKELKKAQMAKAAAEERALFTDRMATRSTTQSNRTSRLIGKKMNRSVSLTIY
T2 sequence (Q96SW2 whole entry): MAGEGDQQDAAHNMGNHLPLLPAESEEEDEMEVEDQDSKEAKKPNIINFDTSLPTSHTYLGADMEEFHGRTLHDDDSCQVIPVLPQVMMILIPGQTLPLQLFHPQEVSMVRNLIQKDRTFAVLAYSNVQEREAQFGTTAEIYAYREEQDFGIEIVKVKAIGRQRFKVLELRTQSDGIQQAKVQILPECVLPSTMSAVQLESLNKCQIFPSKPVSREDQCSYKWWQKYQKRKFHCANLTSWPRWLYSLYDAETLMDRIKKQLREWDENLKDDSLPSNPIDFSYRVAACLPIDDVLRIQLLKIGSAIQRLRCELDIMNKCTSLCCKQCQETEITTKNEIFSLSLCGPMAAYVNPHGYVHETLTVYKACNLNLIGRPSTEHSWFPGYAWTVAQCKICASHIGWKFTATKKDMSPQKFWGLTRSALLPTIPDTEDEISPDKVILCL
T2 sequence (Q16531 whole entry partner): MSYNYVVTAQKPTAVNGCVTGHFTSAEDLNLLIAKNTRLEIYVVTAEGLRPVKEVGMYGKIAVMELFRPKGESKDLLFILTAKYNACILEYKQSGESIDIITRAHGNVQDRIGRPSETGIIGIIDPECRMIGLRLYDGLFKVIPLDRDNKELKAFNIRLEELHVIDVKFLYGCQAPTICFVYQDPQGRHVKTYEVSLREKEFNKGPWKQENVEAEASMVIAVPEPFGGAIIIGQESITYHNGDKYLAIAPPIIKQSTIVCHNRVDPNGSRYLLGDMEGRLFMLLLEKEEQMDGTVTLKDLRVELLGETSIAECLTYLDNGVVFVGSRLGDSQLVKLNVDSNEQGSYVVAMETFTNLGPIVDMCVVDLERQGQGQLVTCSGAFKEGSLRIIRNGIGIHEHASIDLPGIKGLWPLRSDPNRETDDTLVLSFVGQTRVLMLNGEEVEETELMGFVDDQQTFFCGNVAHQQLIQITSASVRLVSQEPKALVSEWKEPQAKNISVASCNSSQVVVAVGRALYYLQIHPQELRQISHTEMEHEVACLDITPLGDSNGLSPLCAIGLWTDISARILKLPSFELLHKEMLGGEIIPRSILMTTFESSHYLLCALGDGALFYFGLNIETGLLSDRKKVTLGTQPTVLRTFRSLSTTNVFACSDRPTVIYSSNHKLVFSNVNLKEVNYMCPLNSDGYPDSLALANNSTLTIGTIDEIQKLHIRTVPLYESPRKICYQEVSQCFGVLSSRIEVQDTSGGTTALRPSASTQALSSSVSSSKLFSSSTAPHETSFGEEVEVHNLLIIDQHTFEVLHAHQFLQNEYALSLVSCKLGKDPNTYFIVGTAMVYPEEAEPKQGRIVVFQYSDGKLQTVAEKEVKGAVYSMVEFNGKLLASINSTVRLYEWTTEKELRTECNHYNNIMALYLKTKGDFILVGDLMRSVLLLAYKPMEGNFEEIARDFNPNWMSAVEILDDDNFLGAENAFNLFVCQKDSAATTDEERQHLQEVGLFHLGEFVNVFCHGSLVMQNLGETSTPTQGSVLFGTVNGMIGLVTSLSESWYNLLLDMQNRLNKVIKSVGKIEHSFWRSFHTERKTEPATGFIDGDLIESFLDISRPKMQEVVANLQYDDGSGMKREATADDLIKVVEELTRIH

IKZF3 = target: T3, IKZF3 (Homo sapiens, UniProt Q96SW2+Q9UKT9); assay: as above; type: cell-based
T3 construct: effects of the compounds of the present disclosure on the expression of target proteins in cells; endogenous in cells; host or cells: human PBMCs (Milecell Biotechnologies)
T3 sequence (Q9UKT9 whole entry): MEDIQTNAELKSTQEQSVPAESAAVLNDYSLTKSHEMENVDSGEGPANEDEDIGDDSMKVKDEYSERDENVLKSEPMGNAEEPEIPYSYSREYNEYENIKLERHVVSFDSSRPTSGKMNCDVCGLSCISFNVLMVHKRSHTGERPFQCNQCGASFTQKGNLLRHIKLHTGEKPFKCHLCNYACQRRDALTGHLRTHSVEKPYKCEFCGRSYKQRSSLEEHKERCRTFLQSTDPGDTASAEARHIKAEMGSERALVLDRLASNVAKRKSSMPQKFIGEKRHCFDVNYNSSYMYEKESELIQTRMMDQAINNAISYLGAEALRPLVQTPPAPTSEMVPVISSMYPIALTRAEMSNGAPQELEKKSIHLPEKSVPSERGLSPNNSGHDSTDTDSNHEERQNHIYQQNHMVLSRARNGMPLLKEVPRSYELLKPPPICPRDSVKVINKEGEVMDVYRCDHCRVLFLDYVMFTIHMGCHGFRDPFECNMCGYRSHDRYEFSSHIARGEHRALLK
T3 sequence (Q96SW2 whole entry): as the sequence (Q96SW2 whole entry) above
T3 sequence (Q16531 whole entry partner): as the sequence (Q16531 whole entry partner) above

CK1α = target: T4, CK1α (Homo sapiens, UniProt P48729+Q96SW2); assay: as above; type: cell-based
T4 construct: effects of the compounds of the present disclosure on the expression of target proteins in cells; endogenous in cells; host or cells: human PBMCs (Milecell Biotechnologies)
T4 sequence (P48729 whole entry): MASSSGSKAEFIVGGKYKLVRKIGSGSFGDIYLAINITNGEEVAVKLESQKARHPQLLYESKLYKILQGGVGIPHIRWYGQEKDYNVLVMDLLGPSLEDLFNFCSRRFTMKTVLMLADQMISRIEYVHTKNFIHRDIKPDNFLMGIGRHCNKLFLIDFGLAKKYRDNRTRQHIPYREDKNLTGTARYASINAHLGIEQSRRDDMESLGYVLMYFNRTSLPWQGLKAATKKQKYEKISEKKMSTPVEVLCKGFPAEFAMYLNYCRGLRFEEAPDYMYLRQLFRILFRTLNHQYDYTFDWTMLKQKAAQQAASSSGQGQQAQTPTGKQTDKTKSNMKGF
T4 sequence (Q96SW2 whole entry): as the sequence (Q96SW2 whole entry) above
T4 sequence (Q16531 whole entry partner): as the sequence (Q16531 whole entry partner) above

IKZF1 = target: T5, IKZF1 (Homo sapiens, UniProt Q13422+Q96SW2); assay: as above; type: cell-based
T5 construct: effects of the compounds of the present disclosure on the expression of target proteins in cells; endogenous in cells; host or cells: human PBMCs (Milecell Biotechnologies)
T5 sequence (Q13422 whole entry): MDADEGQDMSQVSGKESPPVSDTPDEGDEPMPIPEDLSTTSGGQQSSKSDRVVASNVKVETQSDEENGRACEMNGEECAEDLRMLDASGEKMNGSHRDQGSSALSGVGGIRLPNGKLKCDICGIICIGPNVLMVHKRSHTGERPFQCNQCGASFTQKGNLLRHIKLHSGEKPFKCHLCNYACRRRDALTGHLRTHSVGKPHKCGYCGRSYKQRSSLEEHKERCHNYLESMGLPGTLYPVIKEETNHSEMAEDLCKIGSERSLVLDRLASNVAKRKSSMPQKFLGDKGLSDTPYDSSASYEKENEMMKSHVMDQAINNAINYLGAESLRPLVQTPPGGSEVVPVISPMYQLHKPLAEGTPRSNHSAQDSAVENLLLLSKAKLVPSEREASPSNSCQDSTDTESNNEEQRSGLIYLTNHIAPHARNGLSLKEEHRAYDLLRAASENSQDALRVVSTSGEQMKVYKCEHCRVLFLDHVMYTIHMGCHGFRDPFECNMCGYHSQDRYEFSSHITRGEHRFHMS
T5 sequence (Q96SW2 whole entry): as the sequence (Q96SW2 whole entry) above
T5 sequence (Q16531 whole entry partner): as the sequence (Q16531 whole entry partner) above

IKZF2 = target: T6, IKZF2 (Homo sapiens, UniProt Q96SW2+Q9UKS7); assay: as above; type: cell-based
T6 construct: effects of the compounds of the present disclosure on the expression of target proteins in cells; endogenous in cells; host or cells: human PBMCs (Milecell Biotechnologies)
T6 sequence (Q9UKS7 whole entry): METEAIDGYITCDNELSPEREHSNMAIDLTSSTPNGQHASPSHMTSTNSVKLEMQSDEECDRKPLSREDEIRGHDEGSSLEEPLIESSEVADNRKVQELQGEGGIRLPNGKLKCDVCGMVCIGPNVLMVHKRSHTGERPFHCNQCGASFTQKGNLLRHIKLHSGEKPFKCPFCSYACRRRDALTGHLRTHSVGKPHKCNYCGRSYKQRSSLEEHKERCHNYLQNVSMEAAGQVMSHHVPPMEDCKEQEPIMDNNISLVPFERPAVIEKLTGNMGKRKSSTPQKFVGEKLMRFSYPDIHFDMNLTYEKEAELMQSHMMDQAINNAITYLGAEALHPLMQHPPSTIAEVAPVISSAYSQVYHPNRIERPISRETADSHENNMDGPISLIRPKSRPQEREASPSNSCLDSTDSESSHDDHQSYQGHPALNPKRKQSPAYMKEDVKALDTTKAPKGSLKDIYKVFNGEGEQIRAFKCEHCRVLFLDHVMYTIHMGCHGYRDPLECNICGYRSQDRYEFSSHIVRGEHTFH
T6 sequence (Q96SW2 whole entry): as the sequence (Q96SW2 whole entry) above
T6 sequence (Q16531 whole entry partner): as the sequence (Q16531 whole entry partner) above

[2] = system: Human multiple myeloma cell (MM.1S); assay: Tumor cell proliferation inhibition (CellTiter-Meiluncell luminescent cell viability assay); details: for inhibition at 0.01 µM / inhibition at 0.5 µM: Homo sapiens, MM1.S, 96 h; for inhibition at 0.01 µM: read-out: Inhibition Rate at 10 nM (%); for inhibition at 0.5 µM: read-out: Inhibition Rate at 500 nM (%); for Inhibition Rate at 500 nM (%): MM.1S, 96 hours
[3] = Western blot, 24 hours of compound treatment, compounds tested at 50 nM and 500 nM (concentration for the table not stated)
[4] = 24 hours treatment, compounds at 50 nM and 500 nM (concentration behind the class not stated)

T1 sequence (Q96SW2 whole entry): as the sequence (Q96SW2 whole entry) above

Compound | GSPT1 substrate protein remaining % (GSPT1; [3]) | inhibition at 0.5 µM [1] [%] | inhibition at 2 µM [1] [%] | Wee1 substrate protein remaining % (WEE1; [3]) | IKZF3 substrate protein remaining % (IKZF3; [3]) | CK1α substrate protein remaining % (CK1α; [3]) | IKZF 1 substrate protein remaining % (IKZF1; [3]) | IKZF2 substrate protein remaining % (IKZF2; [3]) | inhibition at 0.01 µM [2] [%] | inhibition at 0.5 µM [2] [%] | Inhibition Rate at 500 nM (%) [2] | GSPT1 substrate protein remaining % (GSPT1; [4]) | Wee1 substrate protein remaining % (WEE1; [4]) | IKZF3 substrate protein remaining % (IKZF3; [4]) | CK1α substrate protein remaining % (CK1α; [4]) | IKZF 1 substrate protein remaining % (IKZF1; [4]) | IKZF2 substrate protein remaining % (IKZF2; [4])
O=C1CCC(N2Cc3cc(CN4CC5CC(C4)N5c4cccc(Cl)c4Cl)ccc3C2=S)C(=O)N1 (stereo not shown) [GT-08476, 3-(5-((6-(2,3-dichlorophenyl)-3,6-diazabicyclo[3.1.1]heptan-3-yl)methyl)-1-thioxoisoindolin-2-yl)piperidine-2,6-dione] | B (80%< substrate protein remaining %≤ 100%) | 60 to 80 | 80 to 100 | B (80%< substrate protein remaining %≤ 100%) | A (0% ≤ substrate protein remaining % ≤ 80%) | B (80%< substrate protein remaining %≤ 100%) | B (80%< substrate protein remaining %≤ 100%) | B (80%< substrate protein remaining %≤ 100%) | 5 to 10 | 40 to 50 | – | – | – | – | – | – | –
O=C1CCC(N2Cc3c(CN4CC5CC(C4)N5c4cccc(Cl)c4Cl)cccc3C2=S)C(=O)N1 (stereo not shown) [GT-08466, 3-(4-((6-(2,3-dichlorophenyl)-3,6-diazabicyclo[3.1.1]heptan-3-yl)methyl)-1-thioxoisoindolin-2-yl)piperidine-2,6-dione] | A (0% ≤ substrate protein remaining % ≤ 80%) | 30 to 40 | 60 to 80 | B (80%< substrate protein remaining %≤ 100%) | B (80%< substrate protein remaining %≤ 100%) | B (80%< substrate protein remaining %≤ 100%) | B (80%< substrate protein remaining %≤ 100%) | A (0% ≤ substrate protein remaining % ≤ 80%) | 20 to 30 | – | la7 | – | – | – | – | – | –
O=C1CCC(N2Cc3c(CN4C5CC4CN(c4cccc(Cl)c4Cl)C5)cccc3C2=S)C(=O)N1 (stereo not shown) [GT-08465, 3-(4-((3-(2,3-dichlorophenyl)-3,6-diazabicyclo[3.1.1]heptan-6-yl)methyl)-1-thioxoisoindolin-2-yl)piperidine-2,6-dione] | A (0% ≤ substrate protein remaining % ≤ 80%) | 40 to 53 | 60 to 80 | B (80%< substrate protein remaining %≤ 100%) | B (80%< substrate protein remaining %≤ 100%) | B (80%< substrate protein remaining %≤ 100%) | B (80%< substrate protein remaining %≤ 100%) | B (80%< substrate protein remaining %≤ 100%) | 40 to 50 | – | la5 | – | – | – | – | – | –
O=C1CCC(N2Cc3cc(CN4CCC(c5ccc(Cl)cc5)CC4)ccc3C2=S)C(=O)N1 (stereo not shown) [GT-08619, 3-(5-((4-(4-chlorophenyl)piperidin-1-yl)methyl)-1-thioxoisoindolin-2-yl)piperidine-2,6-dione] | A (0% ≤ substrate protein remaining % ≤ 80%) | 40 to 53 | 80 to 100 | B (80%< substrate protein remaining %≤ 100%) | B (80%< substrate protein remaining %≤ 100%) | B (80%< substrate protein remaining %≤ 100%) | B (80%< substrate protein remaining %≤ 100%) | B (80%< substrate protein remaining %≤ 100%) | 20 to 30 | 40 to 50 | – | – | – | – | – | – | –
O=C1CCC(N2Cc3c(CN4C[C@H]5C[C@@H]4CN5c4cccc(Cl)c4Cl)cccc3C2=S)C(=O)N1 (stereo in doubt) [GT-08467, 3-(4-(((1R,4R)-5-(2,3-dichlorophenyl)-2,5-diazabicyclo[2.2.1]heptan-2-yl)methyl)-1-thioxoisoindolin-2-yl)piperidine-2,6-dione] | A (0% ≤ substrate protein remaining % ≤ 80%) | 30 to 40 | 60 to 80 | B (80%< substrate protein remaining %≤ 100%) | B (80%< substrate protein remaining %≤ 100%) | B (80%< substrate protein remaining %≤ 100%) | B (80%< substrate protein remaining %≤ 100%) | A (0% ≤ substrate protein remaining % ≤ 80%) | 10 to 20 | – | la7 | – | – | – | – | – | –
O=C1CCC(N2Cc3c(CN4CC=C(c5ncccc5F)CC4)cccc3C2=S)C(=O)N1 (stereo not shown) [GT-08463, 3-(4-((3-fluoro-3',6'-dihydro-[2,4'-bipyridin]-1'(2'H)-yl)methyl)-1-thioxoisoindolin-2-yl)piperidine-2,6-dione] | A (0% ≤ substrate protein remaining % ≤ 80%) | 53 to 60 | 60 to 80 | A (0% ≤ substrate protein remaining % ≤ 80%) | B (80%< substrate protein remaining %≤ 100%) | B (80%< substrate protein remaining %≤ 100%) | B (80%< substrate protein remaining %≤ 100%) | B (80%< substrate protein remaining %≤ 100%) | 40 to 50 | – | la5 | – | – | – | – | – | –
O=C1CCC(N2Cc3c(CN4CC=C(c5ccnc(F)c5F)CC4)cccc3C2=S)C(=O)N1 (stereo not shown) [GT-08464, 3-(4-((2',3'-difluoro-3,6-dihydro-[4,4'-bipyridin]-1(2H)-yl)methyl)-1-thioxoisoindolin-2-yl)piperidine-2,6-dione] | A (0% ≤ substrate protein remaining % ≤ 80%) | 60 to 80 | 60 to 80 | A (0% ≤ substrate protein remaining % ≤ 80%) | B (80%< substrate protein remaining %≤ 100%) | B (80%< substrate protein remaining %≤ 100%) | B (80%< substrate protein remaining %≤ 100%) | B (80%< substrate protein remaining %≤ 100%) | 50 to 60 | – | la5 | – | – | – | – | – | –
O=C1CCC(N2Cc3cc(CN4CC5CCC4CN5c4cccc(Cl)c4Cl)ccc3C2=S)C(=O)N1 (stereo not shown) [GT-08478, 3-(5-((5-(2,3-dichlorophenyl)-2,5-diazabicyclo[2.2.2]octan-2-yl)methyl)-1-thioxoisoindolin-2-yl)piperidine-2,6-dione] | A (0% ≤ substrate protein remaining % ≤ 80%) | 40 to 53 | 80 to 100 | B (80%< substrate protein remaining %≤ 100%) | B (80%< substrate protein remaining %≤ 100%) | B (80%< substrate protein remaining %≤ 100%) | B (80%< substrate protein remaining %≤ 100%) | B (80%< substrate protein remaining %≤ 100%) | 40 to 50 | 50 to 60 | – | – | – | – | – | – | –
O=C1CCC(N2Cc3c(CN4CC=C(c5ncnc6sc7c(c56)CCCC7)CC4)cccc3C2=S)C(=O)N1 (stereo not shown) [GT-08962, 3-(4-((4-(5,6,7,8-tetrahydrobenzo[4,5]thieno[2,3-d]pyrimidin-4-yl)-3,6-dihydropyridin-1(2H)-yl)methyl)-1-thioxoisoindolin-2-yl)piperidine-2,6-dione] | – | 40 to 53 | 80 to 100 | – | – | – | – | – | 30 to 40 | 40 to 50 | – | A (0% ≤ substrate protein remaining % ≤ 80%) | A (0% ≤ substrate protein remaining % ≤ 80%) | B (80%< substrate protein remaining %≤ 100%) | B (80%< substrate protein remaining %≤ 100%) | B (80%< substrate protein remaining %≤ 100%) | B (80%< substrate protein remaining %≤ 100%)
O=C1CCC(N2Cc3cc(CN4CCN(c5ccccc5Br)CC4)ccc3C2=S)C(=O)N1 (stereo not shown) [GT-08242, 3-(5-((4-(2-bromophenyl)piperazin-1-yl)methyl)-1-thioxoisoindolin-2-yl)piperidine-2,6-dione] | A (0% ≤ substrate protein remaining % ≤ 80%) | 40 to 53 | 80 to 100 | B (80%< substrate protein remaining %≤ 100%) | B (80%< substrate protein remaining %≤ 100%) | B (80%< substrate protein remaining %≤ 100%) | B (80%< substrate protein remaining %≤ 100%) | B (80%< substrate protein remaining %≤ 100%) | 30 to 40 | – | la8 | – | – | – | – | – | –

Source: patent EP4745135A1 (Gluetacs Therapeutics (Shanghai) Co., Ltd., priority 2023, dated 2025)
